Patent publication US20160030510A1, “METHODS OF TREATING ALZHEIMER'S DISEASE AND OTHER TAUOPATHIES WITH INHIBITORS OF MICROTUBULE AFFINITY REGULATING KINASE” (The Board of Trustees of the Leland Stanford Junior …, priority 2012, published 2016)
Where a SMILES comes first, the peptide text is derived from it.

Tests used:
5×FAD mouse = test: Activity Chamber assay in 5×FAD Alzheimer's disease mouse model; type: in vivo; conditions: 5×FAD mice, daily IP for 5 days, FIGS. 11A-11H
From the text: The 5×FAD mouse, a well-accepted transgenic model of Alzheimer's disease, was used to test the therapeutic efficacy of MKI-TAT in vivo. The 5×FAD model mouse overexpresses APP with the K670N/M671L (Swedish mutation), I716V (Florida mutation), and V717I (London mutation), and PS1 with the M146L and L286V mutations. […] These defects were rescued by the daily delivery of MKI-TAT through IP for 5 days. At the end of the 5 day treatment, the wild type animals treated with vehicle, and 5×FAD mice treated with vehicle or MKI-TAT were subjected to the Activity Chamber assay. Total ambulatory count (FIG. 11A), total stereotypic count (FIG. 11B), total vertical count (FIG. 11C), total session time (FIG. 11D), total ambulatory time (FIG. 11E), total stereotypic time (FIG. 11F), total vertical time (FIG. 11G), and total zone entry (FIG. 11H) were evaluated.
Activity Chamber assays were performed to evaluate the effects of MKI-TAT in rescuing motor behavioral defects in an Alzheimer's disease mouse model. The 5×FAD mouse, a well-accepted transgenic model of Alzheimer's disease, was used to test the therapeutic efficacy of MKI-TAT in vivo. The 5×FAD model mouse overexpresses APP with the K670N/M671L (Swedish mutation), I716V (Florida mutation), and V717I (London mutation), and PS1 with the M146L and L286V mutations. […]

[1] = system: MARK4-mediated tau phosphorylation; test: Tau phosphorylation in brain of mouse PS19 transgenic tauopathy model (P301S mutant human tau); type: in vivo; conditions: PS19 mice, IP 40 mg/kg/day for 5 days, FIG. 10
Method: Three PS19 transgenic mice (ID number: 9, 10, 11) were subjected to daily IP injection with MKI-TAT peptide (dissolved in 100% DMSO, 40 mg/kg/day) for 5 days. At the end of 5-day injection, the animals were anesthetized with 4% isoflurine and decapitated. The brain tissues were collected immediately, flash-frozen in liquid nitrogen and stored at −80° C. For analysis of effect of MKI-TAT on tau phosphorylation, brain tissues were homogenized in lysis buffer, separated on SDS-PAGE, and probed with the indicated antibodies.
Three PS19 transgenic mice (ID number: 9, 10, 11) were subjected to daily intraperitoneal injection with MKI-TAT peptide (dissolved in 100% DMSO, 40 mg/kg/day) for 5 days. At the end of the 5-day injection period, the animals were anesthetized with 4% isoflurine and decapitated. The brain tissues were collected immediately, flash-frozen in liquid nitrogen, and stored at −80° C. For analysis of the effects of MKI-TAT on tau phosphorylation, brain tissues were homogenized in lysis buffer, separated on SDS-PAGE, and probed with antibodies against pS262-tau, PHF-1, tau, and actin.

Human MARK4 = molecular target: T1, Human MARK4 (Homo sapiens, UniProt Q96L34); test: In vitro kinase assay of MARK4 phosphorylating tau (Western blot); type: biochemical; conditions: human MARK4 and tau affinity-purified from HEK293 cells, FIG. 7
T1 construct: made in house; host or cells: HEK293 cells
T1 sequence (Q96L34 1-752): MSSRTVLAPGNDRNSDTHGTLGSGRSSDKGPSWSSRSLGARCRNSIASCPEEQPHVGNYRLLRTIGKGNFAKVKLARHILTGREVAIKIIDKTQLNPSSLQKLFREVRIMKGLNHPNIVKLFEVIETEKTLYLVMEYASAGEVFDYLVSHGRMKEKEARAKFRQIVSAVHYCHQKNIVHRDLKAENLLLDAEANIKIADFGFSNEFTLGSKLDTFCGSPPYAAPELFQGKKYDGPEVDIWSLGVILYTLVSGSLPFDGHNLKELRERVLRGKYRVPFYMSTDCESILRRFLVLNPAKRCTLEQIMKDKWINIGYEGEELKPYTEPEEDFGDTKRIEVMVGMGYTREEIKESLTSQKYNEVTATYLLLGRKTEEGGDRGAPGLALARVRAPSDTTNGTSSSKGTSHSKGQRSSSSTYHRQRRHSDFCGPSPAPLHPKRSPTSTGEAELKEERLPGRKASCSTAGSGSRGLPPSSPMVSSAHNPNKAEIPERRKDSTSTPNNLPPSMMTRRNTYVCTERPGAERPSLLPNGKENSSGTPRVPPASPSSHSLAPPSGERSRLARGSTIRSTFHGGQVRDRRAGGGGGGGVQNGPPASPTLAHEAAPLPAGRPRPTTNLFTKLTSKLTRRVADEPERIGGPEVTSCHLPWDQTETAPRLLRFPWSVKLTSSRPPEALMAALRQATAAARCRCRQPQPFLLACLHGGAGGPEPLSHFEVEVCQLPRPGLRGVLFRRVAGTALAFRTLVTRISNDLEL
From the text: Both human MARK4 and tau proteins were expressed in HEK293 cells and affinity-purified by immunoprecipitation. After in vitro kinase reaction in the presence or absence of the peptides, the reaction mixtures were separated on SDS-PAGE to separate the proteins, and the levels of total tau and phospho-tau generated by MARK4 were detected by Western blot analysis. The TAT peptide was used as a negative control. Note the inhibition of MARK4-mediated tau phosphorylation by both TAT-MKI and MKI-TAT.
We next tested the ability of the TAT-MKI and MKI-TAT fusions to inhibit the activity of MARK4 kinase in phosphorylating the tau protein (FIG. 7). Human MARK4 and tau proteins were expressed in HEK293 cells and affinity-purified by immunoprecipitation. In vitro kinase reactions were performed in the presence or absence of the TAT-MKI and MKI-TAT fusion peptides and the levels of total tau and phospho-tau generated by MARK4 were detected by Western blot analysis. The TAT peptide was used as a negative control. Both the TAT-MKI and MKI-TAT fusion peptides inhibited MARK4-mediated tau phosphorylation in vitro.

CC(=O)NCC(=O)N[C@@H](Cc1ccccc1)C(=O)N1CCC[C@H]1C(=O)N[C@@H](CC(C)C)C(=O)N[C@@H](CCCCN)C(=O)N[C@@H](CCCNC(=N)N)C(=O)N[C@@H](Cc1c[nH]cn1)C(=O)N[C@@H](CC(=O)O)C(=O)NCC(=O)N[C@H](C(=O)N[C@@H](CC(=O)O)C(=O)N[C@@H](CC(=O)O)C(=O)N[C@@H](CC(C)C)C(=O)N[C@@H](CO)C(=O)N[C@@H](CCCCN)C(=O)N[C@H](C(=O)NCC(=O)NCC(=O)N[C@@H](Cc1ccc(O)cc1)C(=O)NCC(=O)N[C@@H](CCCNC(=N)N)C(=O)N[C@@H](CCCCN)C(=O)N[C@@H](CCCCN)C(=O)N[C@@H](CCCNC(=N)N)C(=O)N[C@@H](CCCNC(=N)N)C(=O)N[C@@H](CCC(N)=O)C(=O)N[C@@H](CCCNC(=N)N)C(=O)N[C@@H](CCCNC(=N)N)C(=O)N[C@@H](CCCNC(=N)N)C(N)=O)C(C)C)C(C)C [MKI-TAT] (Ac-GFPLKRHDGVDDLSKVGGYGRKKRRQRRR-NH2)
motor behavioral defects (time in zones, average velocity, rearing time, session time, zone entry) (5×FAD mouse): rescued | Phospho-tau recognized by the PHF-1 antibody in brain [1]: reduced | level of MARK4-mediated tau phosphorylation recognized by the pS262-tau antibody in brain [1]: significantly reduced | total tau level in brain [1]: largely unchanged | MARK4-mediated tau phosphorylation in vitro (Human MARK4): inhibited
